# Laboratory results taken from ChEMBL document CHEMBL4177594, “Design, synthesis, and evaluation of salicyladimine derivatives as multitarget-directed ligands against Alzheimer's disease” (Bioorg Med Chem, 2017).
# The source made the active and inactive calls. The rule behind the calls is not given here.
# How the values were obtained:
# PC-12 [1] = test: Neuroprotective activity against H2O2-induced apoptosis in rat PC12 cells assessed as viable cells level at 6.25 uM after 24 hrs by Annexin V/FITC/propidium iodide staining-based flow cytometry (reference value: 96.2%); type: functional
# [2] = Metal chelating activity assessed as compound-Cu2+ complex formation after 30 mins by UV-Vis spectrophotometry based Job's plot
# PC-12 [3] = test: Neuroprotective activity against H2O2-induced apoptosis in rat PC12 cells assessed as early apoptosis cells level at 12.5 uM after 24 hrs by Annexin V/FITC/propidium iodide staining-based flow cytometry (reference value: 1.8%); type: functional
# [4] = Antioxidant activity assessed as ABTS radical scavenging activity at 25 uM after 6 mins; type: functional
# [5] = Metal chelating activity assessed as compound-Fe2+ complex formation after 30 mins by UV-Vis spectrophotometry based Job's plot
# Homo sapiens = species: Homo sapiens; test: Selectivity index, ratio of IC50 for human MAO-A to IC50 for human MAO-B
# PC-12 [6] = test: Neuroprotective activity against H2O2-induced cytotoxicity in rat PC12 cells assessed as increase in cell viability at 6.25 to 25 uM preincubated for 24 hrs followed by H2O2 addition and measured after 24 hrs by MTT assay; type: functional, cell-based
# PC-12 [7] = test: Neuroprotective activity against H2O2-induced apoptosis in rat PC12 cells assessed as necrosis cells level at 50 uM after 24 hrs by Annexin V/FITC/propidium iodide staining-based flow cytometry (reference value: 0.1%); type: functional
# PC-12 [8] = test: Neuroprotective activity against H2O2-induced apoptosis in rat PC12 cells assessed as necrosis cells level at 12.5 uM after 24 hrs by Annexin V/FITC/propidium iodide staining-based flow cytometry (reference value: 0.1%); type: functional
# PC-12 [9] = test: Neuroprotective activity against H2O2-induced apoptosis in rat PC12 cells assessed as viable cells level at 50 uM after 24 hrs by Annexin V/FITC/propidium iodide staining-based flow cytometry (reference value: 96.2%); type: functional
# PC-12 [10] = test: Neuroprotective activity against H2O2-induced apoptosis in rat PC12 cells assessed as late apoptosis cells level at 6.25 uM after 24 hrs by Annexin V/FITC/propidium iodide staining-based flow cytometry (reference value: 1.9%); type: functional
# PC-12 [11] = test: Neuroprotective activity against H2O2-induced apoptosis in rat PC12 cells assessed as late apoptosis cells level at 50 uM after 24 hrs by Annexin V/FITC/propidium iodide staining-based flow cytometry (reference value: 1.9%); type: functional
# PC-12 [12] = test: Neuroprotective activity against H2O2-induced apoptosis in rat PC12 cells assessed as necrosis cells level at 6.25 uM after 24 hrs by Annexin V/FITC/propidium iodide staining-based flow cytometry (reference value: 0.1%); type: functional
# BV-2 = test: Neuroprotective activity against LPS-induced inflammation in mouse BV2 cells assessed as inhibition of LPS-induced NO production at 10 to 25 uM after 24 hrs in presence of LPS by Griess reaction based assay relative to resveratrol; type: functional, cell-based
# PC-12 [13] = test: Neuroprotective activity against H2O2-induced apoptosis in rat PC12 cells assessed as apoptotic cells at 6.25 uM after 24 hrs by Annexin V/FITC/propidium iodide staining-based flow cytometry (reference value: 52.3%); type: functional
# PC-12 [14] = test: Neuroprotective activity against H2O2-induced apoptosis in rat PC12 cells assessed as apoptotic cells at 12.5 uM after 24 hrs by Annexin V/FITC/propidium iodide staining-based flow cytometry (reference value: 52.3%); type: functional
# PC-12 [15] = test: Neuroprotective activity against H2O2-induced apoptosis in rat PC12 cells assessed as viable cells level at 25 uM after 24 hrs by Annexin V/FITC/propidium iodide staining-based flow cytometry (reference value: 96.2%); type: functional
# PC-12 [16] = test: Neuroprotective activity against H2O2-induced apoptosis in rat PC12 cells assessed as apoptotic cells at 25 uM after 24 hrs by Annexin V/FITC/propidium iodide staining-based flow cytometry (reference value: 52.3%); type: functional
# PC-12 [17] = test: Neuroprotective activity against H2O2-induced apoptosis in rat PC12 cells assessed as early apoptosis cells level at 50 uM after 24 hrs by Annexin V/FITC/propidium iodide staining-based flow cytometry (reference value: 1.8%); type: functional
# [18] = Metal chelating activity assessed as compound-Fe3+ complex formation after 30 mins by UV-Vis spectrophotometry based Job's plot
# [19] = biological target: T1, Amine oxidase [flavin-containing] B (Homo sapiens, UniProt P27338); test: Inhibition of human MAO-B using p-tyramine as substrate preincubated for 15 mins followed by substrate addition measured after 20 mins by fluorescence-based Amplex Red MAO assay
# T1 sequence (P27338 whole entry): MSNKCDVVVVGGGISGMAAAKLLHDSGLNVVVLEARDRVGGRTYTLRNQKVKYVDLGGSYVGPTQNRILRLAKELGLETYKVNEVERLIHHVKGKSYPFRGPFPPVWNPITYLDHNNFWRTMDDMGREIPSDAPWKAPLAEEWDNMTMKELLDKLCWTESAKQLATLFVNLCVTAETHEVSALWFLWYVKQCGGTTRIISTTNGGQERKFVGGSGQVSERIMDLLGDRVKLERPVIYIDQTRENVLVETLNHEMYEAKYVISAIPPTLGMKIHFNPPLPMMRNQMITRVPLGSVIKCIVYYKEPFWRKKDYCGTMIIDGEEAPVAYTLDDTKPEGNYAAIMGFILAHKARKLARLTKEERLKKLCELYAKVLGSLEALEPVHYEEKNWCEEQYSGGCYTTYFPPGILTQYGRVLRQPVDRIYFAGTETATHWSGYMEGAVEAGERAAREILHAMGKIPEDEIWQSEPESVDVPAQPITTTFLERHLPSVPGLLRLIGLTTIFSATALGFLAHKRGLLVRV
# PC-12 [20] = test: Neuroprotective activity against 6-OHDA-induced toxicity in rat PC12 cells assessed as increase in cell viability at 10 to 25 uM pretreated for 24 hrs followed by 6-OHDA challenge measured after 24 hrs by MTT assay; type: functional
# in vitro = test: in vitro; parameters: dose or concentration left out as unconfirmed; details: PAMPA
# Description: Permeability of the compound at 100 mg/ml after 16 hrs by BBB-PAMPA method
# PC-12 [21] = test: Neuroprotective activity against H2O2-induced apoptosis in rat PC12 cells assessed as necrosis cells level at 25 uM after 24 hrs by Annexin V/FITC/propidium iodide staining-based flow cytometry (reference value: 0.1%); type: functional
# PC-12 [22] = test: Neuroprotective activity against H2O2-induced apoptosis in rat PC12 cells assessed as early apoptosis cells level at 6.25 uM after 24 hrs by Annexin V/FITC/propidium iodide staining-based flow cytometry (reference value: 1.8%); type: functional
# PC-12 [23] = test: Cytotoxicity against rat PC12 cells at 25 uM after 24 hrs by MTT assay; type: cell-based; details: pc-12, 24 h
# PC-12 [24] = test: Neuroprotective activity against H2O2-induced apoptosis in rat PC12 cells assessed as late apoptosis cells level at 25 uM after 24 hrs by Annexin V/FITC/propidium iodide staining-based flow cytometry (reference value: 1.9%); type: functional
# PC-12 [25] = test: Neuroprotective activity against H2O2-induced apoptosis in rat PC12 cells assessed as apoptotic cells at 50 uM after 24 hrs by Annexin V/FITC/propidium iodide staining-based flow cytometry (reference value: 52.3%); type: functional
# [26] = Antioxidant activity assessed as DPPH radical scavenging activity after 30 mins; type: functional
structure (smiles),measurement,setting,value
Oc1ccc(/C=N/c2ccc(OCc3ccccc3)cc2)c(O)c1O,Activity,PC-12 [1],60.6%
same,log K,[2],8.01
same,Activity,PC-12 [3],25.7%
same,Activity (umolequiv/umol),[4],0.67
same,log K,[5],6.3
same,Ratio IC50,Homo sapiens,> 57.8
same,Activity,PC-12 [6],Active
same,Activity,PC-12 [7],3%
same,Activity,PC-12 [8],0.4%
same,Activity,PC-12 [9],91.1%
same,Activity,PC-12 [10],11.9%
same,Activity,PC-12 [11],2.3%
same,Activity,PC-12 [12],0.8%
same,Activity,BV-2,Active
same,Activity,PC-12 [13],38.6%
same,Activity,PC-12 [14],29.9%
same,Activity,PC-12 [15],87.7%
same,Activity,PC-12 [16],11.2%
same,Activity,PC-12 [17],3.7%
same,log K,[18],6.19
same,IC50,[19],1.73 µM
same,Activity,PC-12 [20],65.9 - 75.4%
same,Papp at 16 h,in vitro,5.75 ×10⁻⁶ cm/s
same,Activity,PC-12 [21],1.1%
same,Activity,PC-12 [22],26.7%
same,Activity,PC-12 [23],Non-Toxic
same,Activity,PC-12 [24],2.7%
same,Activity,PC-12 [25],6.1%
same,IC50,[26],43.4 µM
